From patent US20220062258A1, “Heterocyclic derivatives” (Merck Patent GmbH, priority 2019, published 2022)

Key:
Format in all cases: cell-based
MetAP-2 [1] = target: T1, MetAP-2 (Homo sapiens, UniProt P50579); assay: Degradation of MetAP-2 in HCT116 cells (Western blot, MetAp2/GAPDH signal); design: endogenous in cells; host or cells: HCT116; conditions: for Signal MetAp2/GAPDH normalized to untreated (DMSO): HTC116 cells, <1 means degradation
MetAP-2 [2] = target: T1, MetAP-2; assay: as above; design: endogenous in cells; host or cells: HCT116; conditions: for Signal MetAp2/GAPDH normalized to untreated (DMSO): 24 hrs, HTC116 cells, <1 means degradation; for reduction of MetAP-2 protein: after 24 h
Procedure: See scans below. […] The initial MetAP-2 degradation results were obtained after 24 h incubation of the compounds in three different concentrations (0.1; 1; 10 μM), cell lysis, SDS-PAGE separation, blotting and antibody aided detection.
Comparison of MetAP2 protein levels in HTC116 cells after compound treatments at different concentrations and time points. As control, DMSO was used and its values set as “1”. MetAp2 values <1 means degradation.
2. Exemplary Testing of the Compound
HCT116 cells were sown in 6-well plates. Pipette 1 mL fresh medium to every well and incubate for at least 1 h (37° C., 5% CO2, 95% rH).
Harvest and count cells in Vi-Cell. Equinr. 70198475 Adjust cell concentration to 0.35e^6 cells/mL and add 1 mL of cell suspension (total 0,35e^6 cells/well).
Incubate cells for 24 hours (37° C., 5% CO2, 95% rH)
HCT116: 24 h: ˜50% confluent before treatment
Compounds will be thawed the first time, stock: 10 mM; final concentration: 10 μM & 1 μM & 0.1 μM
Treatment with DMSO based solution with Digital Dispenser: HCT116 platte 2A1.jpg_meta.xml • create new dispensing protocol for compound • apply name of test compound and its stock concentration (in mM) for testing • 3×1:10 dilution series • final 0.3% DMSO, DMSO normalization for every well • shaking after compound/DMSO addition
Incubate cells for further 24 hours (37° C., 5% C02, 95% rH)
HCT116: 70-80% confluent before lysis • after incubation cells were lysed with RIPA lysis buffer including Halt™
all steps performed on ice or at 4° C. • aspirate supernatant from cells • wash cells twice with 2.0 mL ice cold PBS buffer • aspirate supernatant from cells after each washing step • lyse cells with 100 μL Ripa lysis buffer per well • scrape cells with cell scraper and transfer lysates to Eppendorf Cups • incubate for 15 min on ice • centrifuge […] at 13000×g and 4° C. • transfer supernatants to fresh Eppendorf cups • removal of 20 μL lysate for BCA assay • aliquot and freeze at −20° C.
Determination of protein concentration of lysates with BCA Protein Assay Kit. BSA supplied with the kit is 2 mg/mL.
Dilute the standard (Stock BSA concentration=2 mg/mL) in a 96 well plate: Samples were run 1:4. Dilute in lysing buffer, lysing buffer alone was run to determine the background from detergents in the assay.
BCA reagent: Dilute Reagent A and Reagent B in a 1:50 ratio. To 9.8 mL A add 200 μL B.
Assay Procedure: Pipette 5 μL/well of standard or samples to 96 wells (see plate layout). Samples were run in duplicate. Blanks=5 μL/well PBS or 5 μL/well lysing buffer. Add 100 μL/well of the prepared BCA reagent. Tap plate to mix or shake for 1-2 min on the Eppendorf mixer. Incubate at 37° C. for 30 min.
Read the OD at 562 nm. Plate was read on EnVision 2104 Multilabel Reader (Perkin Elmer, Equipment Number 70160330) last verification of instrument 17.08.2017 (once a year) (A25/531). AEH181012_BCA.csv
In EXCEL the duplicates were averaged and the average background PBS was subtracted for the standard curve.
A trend line was created, the intercept (b) was set at 0. The R^2 should be >0.950 for acceptable results. The lysate buffer blank was subtracted from the test values and the averaged, background-corrected O.D. values were used with the equation to calculate mg/ml and then were corrected for the dilution factor for the final mg/mL value. Only results from OD values within the range of the standard curve are acceptable. Values outside of the standard curve range are ignored. BCA AEH00350 Berechnung.xlsx
6. Sample Calculation and Preparation • thaw lysates of AEH00350 on ice • calculate sample volume for Western Blot loading 10 μg total protein/13 μL per slot: • dilute samples with lysis buffer and 10× reducing agent & 4×LDS buffer to 10 μg. • heat them at 70° C. for 10 min and 1000 rmp
7. […]

[3] = test system: HUVEC primary endothelial cells; assay: HUVEC proliferation assay (CyQUANT Direct); conditions: Homo sapiens, 72 h, 3 days incubation
Procedure: HUVEC Proliferation Assay
Proliferation of HUVEC primary endothelial cells was used as cell-based mechanistical assay.^25 Applying the CyQUANT@ Direct Cell Proliferation Assay (Invitrogen C35011) which is based on a cell-permeant fluorescent DNA-binding dye, DNA content is used as a direct measure for cell number. Pooled HUVEC cells (Promocell C-12203) are cultivated in the medium supplied by Promocell (Cat No C-22020) for maximum 4 passages. For the assay 500 cells/well are seeded into black 384-well culture plates with clear bottom in 70 μl culture medium and incubated for 6 hours at 37° C., 5% CO2. 10 μl prediluted test compounds are added and cells incubated for 3 days at 37° C., 5% CO2 before measurement of DNA content. CyQUANT detection reagent is prepared according to the manufacturers protocol, 20 μl/well added and incubated at 37° C., 5% CO2 for at least 1 h before measurement of fluorescence at Envision multimode reader (Perkin-Elmer, Waltham) with excitation 480 nm and emission 535 nm (bottom read mode). The assay is performed as dose response with 10 compound dilutions. Inhibitory values (IC50) were determined using the program ASSAY ANALYZER® from GeneData (Basel, Switzerland).

T1 sequence (P50579 whole entry): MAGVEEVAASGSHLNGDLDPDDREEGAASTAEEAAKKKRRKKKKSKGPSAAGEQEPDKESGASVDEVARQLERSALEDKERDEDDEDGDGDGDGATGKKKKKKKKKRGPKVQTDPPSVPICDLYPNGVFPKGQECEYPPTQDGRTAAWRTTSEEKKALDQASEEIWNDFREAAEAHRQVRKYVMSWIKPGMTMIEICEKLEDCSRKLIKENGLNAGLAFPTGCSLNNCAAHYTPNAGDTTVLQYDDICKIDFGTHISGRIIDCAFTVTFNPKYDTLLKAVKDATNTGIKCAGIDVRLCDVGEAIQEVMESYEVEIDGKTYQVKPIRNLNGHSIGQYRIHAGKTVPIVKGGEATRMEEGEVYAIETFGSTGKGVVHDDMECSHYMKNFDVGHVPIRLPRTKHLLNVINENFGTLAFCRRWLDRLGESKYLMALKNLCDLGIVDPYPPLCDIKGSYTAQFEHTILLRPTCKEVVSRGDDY

Compound | Signal MetAp2/GAPDH normalized to untreated (DMSO) (MetAP-2 [1]; 0.1 μM, 6 hrs) | Signal MetAp2/GAPDH normalized to untreated (DMSO) (MetAP-2 [1]; 1 μM, 6 hrs) | Signal MetAp2/GAPDH normalized to untreated (DMSO) (MetAP-2 [1]; 1 μM, 48 hrs) | reduction of MetAP-2 protein (MetAP-2 [1]; 1 μM, after 6 h) | reduction of MetAP-2 protein (MetAP-2 [1]; 1 μM, after 24 h) | Signal MetAp2/GAPDH normalized to untreated (DMSO) (MetAP-2 [1]; 10 μM, 6 hrs) | Signal MetAp2/GAPDH normalized to untreated (DMSO) (MetAP-2 [1]; 10 μM, 48 hrs) | reduction of MetAP-2 protein (MetAP-2 [1]; 10 μM, after 6 h) | reduction of MetAP-2 protein (MetAP-2 [1]; 10 μM, after 48 h) | Signal MetAp2/GAPDH normalized to untreated (DMSO) (MetAP-2 [2]; 0.1 μM) | reduction of MetAP-2 protein (MetAP-2 [2]; 0.1 μM) | Signal MetAp2/GAPDH normalized to untreated (DMSO) (MetAP-2 [2]; 1 μM) | Signal MetAp2/GAPDH normalized to untreated (DMSO) (MetAP-2 [2]; 10 μM) | reduction of MetAP-2 protein (MetAP-2 [2]; 10 μM) | IC50 [3]
O=C1CCC(N2C(=O)c3cccc(NCCOCCOCCOCCOCCOCCNC(=O)c4cc5cc(N6CCC(O)(C(=O)NCc7cc(F)cc(F)c7)C6=O)ccc5[nH]4)c3C2=O)C(=O)N1 (centres unmarked) [Compound A1, 5-[3-[(3,5-difluorophenyl)methylcarbamoyl]-3-hydroxy-2-oxo-pyrrolidin-1-yl]-N-[2-[2-[2-[2-[2-[2-[[2-(2,6-dioxo-3-piperidyl)-1,3-dioxo-isoindolin-4-yl]amino]ethoxy]ethoxy]ethoxy]ethoxy]ethoxy]ethyl]-1H-indole-2-carboxamide] | 1.3 | 0.9 | 1.2 | 15% | 40% | 0.9 | 0.3 | 10% | 70% | 0.7 | 30% | 0.6 | 0.3 | 70% | 25 µM
O=C1CCC(N2C(=O)c3ccc(NCCOCCOCCOCCOCCNC(=O)c4cc5cc(N6CCC(O)(C(=O)NCc7cc(F)cc(F)c7)C6=O)ccc5[nH]4)cc3C2=O)C(=O)N1 (centres unmarked) [Compound A2, 5-[3-[(3,5-difluorophenyl)methylcarbamoyl]-3-hydroxy-2-oxo-pyrrolidin-1-yl]-N-[2-[2-[2-[2-[2-[[2-(2,6-dioxo-3-piperidyl)-1,3-dioxo-isoindolin-5-yl]amino]-ethoxy]ethoxy]ethoxy]ethoxy]ethyl]-1H-indole-2-carboxamide] | 1.3 | 1.6 | 1.5 |  |  | 1.1 | 0.8 |  | 20% | 1.2 |  | 1.0 | 0.6 | 40% | 30 µM
